According to US8188059B2, “Compounds and methods for modulating expression of GCGR” (Isis Pharmaceuticals, Inc., priority 2006, dated 2012):

Experiments:
Type in all cases: in vivo, mouse
GCGR mRNA = GCGR mRNA levels in liver of C57/BL6 mice, single i.p. dose (Example 4, Tables 35-41); conditions: 48 h, Table 35 comparison ISIS 148364 & ISIS 386626
Protocol: (§1) Eight-week old male C57/BL6 mice (Jackson Laboratory, Bar Harbor, Me.) were administered a single dose of GCGR oligonucleotide by intraperitoneal injection at a concentration of […]. Each dose group consisted of four animals. Shown in Table 31 are the sequences, motifs and conjugates of the GCGR antisense compounds used in this study. Bolded residues indicate 2′-O-methoxyethyl (2′-MOE) moieties. All compounds comprise phosphorothioate internucleoside linkages throughout and each cytosine is replaced with 5-methylcytosine. ISIS 386626, ISIS 386627 and ISIS 386628 further comprise a C16 conjugate group attached to the 2′-O position of the sugar via a diamide linkage (2′-OCH2C(═O)N(H)(CH2)4N(H)C(═O)—(CH2)15CH3). GCGR antisense compounds target published GCGR sequences, including Genbank® Accession No. BC031885.1 (SEQ ID NO: 7).
(§2) Mice were sacrificed 48 hours following injection to determine serum transaminase levels (Table 32); liver, white adipose tissue (WAT), spleen and kidney weight (Table 33); cholesterol, triglyceride and glucose levels (Table 34); GCGR mRNA levels (Tables 35-41); and full-length and total oligonucleotide concentration in liver and kidney (Table 42). Endpoints were assessed using methods described herein and well known to those of ordinary skill in the art. Data is included from a pre-treatment bleed (Pre-Bleed) and post-treatment bleed (Post-Bleed).
To determine whether the phenotypic changes shown above correlated with a decrease in GCGR mRNA, treated animals were evaluated for levels of target mRNA in liver by real time PCR according to methods described herein. Tables 35 to 41 show results from direct comparisons of the antisense compounds targeting GCGR nucleic acid for their effect on target expression. Results are expressed as percent of saline control.

[1] = ALT & AST levels, C57/BL6 mice (Example 4, Table 32); conditions: for ALT Pre-Bleed / AST Pre-Bleed: pre-treatment bleed; for ALT Post-Bleed / AST Post-Bleed: 48 hours following injection
Protocol: as §1, §2

[2] = Organ weights: liver, white adipose tissue, spleen, kidney (Example 4, Table 33); conditions: 48 h, C57/BL6 mice
Protocol: as §1, §2

[3] = Triglyceride, cholesterol and glucose levels, pre-bleed and post-bleed (Example 4, Table 34); design: TRIG Pre-Bleed / TRIG Post-Bleed / CHOL Pre-Bleed / CHOL Post-Bleed / Glucose Pre-Bleed / Glucose Post-Bleed: unit not given here; conditions: C57/BL6 mice; for CHOL Pre-Bleed / Glucose Pre-Bleed / TRIG Pre-Bleed: pre-treatment bleed; for CHOL Post-Bleed / Glucose Post-Bleed / TRIG Post-Bleed: post-treatment bleed, 48 h
Protocol: as §1, §2

[4] = Total and full-length antisense compound concentrations in liver and kidney (Example 4, Table 42); conditions: C57/BL6 mice; single i.p. dose; 48 h; dose not given
Protocol: as §1, §2
Treatment with the 2-10-2 MOE gapmers led to a significant dose-dependent decrease in GCGR mRNA expression. […] To determine whether the observed increase in efficiency with the short antisense compounds is due to an increase in antisense compound accumulation, full-length and total antisense compound concentration in the liver and kidney were determined.

Substance: 386626 (antisense GCTTCTCCATCATA; chemistry not fully specified) [compound 386626]
- GCGR mRNA levels in liver (GCGR mRNA; 6.25 mg/kg single i.p.): 7% of saline control
- GCGR mRNA levels in liver (GCGR mRNA; 12.5 mg/kg single i.p.): 3% of saline control
- GCGR mRNA levels in liver (GCGR mRNA; 25 mg/kg single i.p.): 8% of saline control
- GCGR mRNA levels in liver (GCGR mRNA; 50 mg/kg single i.p.): 0% of saline control
- ALT Pre-Bleed ([1]; 6.25 mg/kg dose group): 26 IU/L
- AST Pre-Bleed ([1]; 6.25 mg/kg dose group): 46 IU/L
- ALT Pre-Bleed ([1]; 12.5 mg/kg dose group): 28 IU/L
- AST Pre-Bleed ([1]; 12.5 mg/kg dose group): 44 IU/L
- ALT Pre-Bleed ([1]; 25 mg/kg dose group): 30 IU/L
- AST Pre-Bleed ([1]; 25 mg/kg dose group): 44 IU/L
- ALT Pre-Bleed ([1]; 50 mg/kg dose group): 28 IU/L
- AST Pre-Bleed ([1]; 50 mg/kg dose group): 48 IU/L
- ALT Post-Bleed ([1]; single i.p. dose 6.25 mg/kg): 42 IU/L
- AST Post-Bleed ([1]; single i.p. dose 6.25 mg/kg): 69 IU/L
- ALT Post-Bleed ([1]; single i.p. dose 12.5 mg/kg): 34 IU/L
- AST Post-Bleed ([1]; single i.p. dose 12.5 mg/kg): 90 IU/L
- ALT Post-Bleed ([1]; single i.p. dose 25 mg/kg): 36 IU/L
- AST Post-Bleed ([1]; single i.p. dose 25 mg/kg): 92 IU/L
- ALT Post-Bleed ([1]; single i.p. dose 50 mg/kg): 40 IU/L
- AST Post-Bleed ([1]; single i.p. dose 50 mg/kg): 120 IU/L
- Organ weight: Kidney ([2]; 6.25 mg/kg single i.p.): 100 % saline control
- Organ weight: Liver ([2]; 6.25 mg/kg single i.p.): 100 % saline control
- Organ weight: Spleen ([2]; 6.25 mg/kg single i.p.): 95 % saline control
- Organ weight: WAT ([2]; 6.25 mg/kg single i.p.): 90 % saline control
- Organ weight: Kidney ([2]; 12.5 mg/kg single i.p.): 97 % saline control
- Organ weight: Liver ([2]; 12.5 mg/kg single i.p.): 96 % saline control
- Organ weight: Spleen ([2]; 12.5 mg/kg single i.p.): 114 % saline control
- Organ weight: WAT ([2]; 12.5 mg/kg single i.p.): 73 % saline control
- Organ weight: Kidney ([2]; 25 mg/kg single i.p.): 103 % saline control
- Organ weight: Liver ([2]; 25 mg/kg single i.p.): 109 % saline control
- Organ weight: Spleen ([2]; 25 mg/kg single i.p.): 120 % saline control
- Organ weight: WAT ([2]; 25 mg/kg single i.p.): 97 % saline control
- Organ weight: Kidney ([2]; 50 mg/kg single i.p.): 104 % saline control
- Organ weight: Liver ([2]; 50 mg/kg single i.p.): 112 % saline control
- Organ weight: Spleen ([2]; 50 mg/kg single i.p.): 130 % saline control
- Organ weight: WAT ([2]; 50 mg/kg single i.p.): 77 % saline control
- CHOL Pre-Bleed ([3]; 6.25 mg/kg group): 85
- Glucose Pre-Bleed ([3]; 6.25 mg/kg group): 222
- TRIG Pre-Bleed ([3]; 6.25 mg/kg group): 86
- CHOL Post-Bleed ([3]; 6.25 mg/kg single i.p.): 90
- Glucose Post-Bleed ([3]; 6.25 mg/kg single i.p.): 221
- TRIG Post-Bleed ([3]; 6.25 mg/kg single i.p.): 162
- CHOL Pre-Bleed ([3]; 12.5 mg/kg group): 82
- Glucose Pre-Bleed ([3]; 12.5 mg/kg group): 232
- TRIG Pre-Bleed ([3]; 12.5 mg/kg group): 100
- CHOL Post-Bleed ([3]; 12.5 mg/kg single i.p.): 76
- Glucose Post-Bleed ([3]; 12.5 mg/kg single i.p.): 185
- TRIG Post-Bleed ([3]; 12.5 mg/kg single i.p.): 148
- CHOL Pre-Bleed ([3]; 25 mg/kg group): 87
- Glucose Pre-Bleed ([3]; 25 mg/kg group): 235
- TRIG Pre-Bleed ([3]; 25 mg/kg group): 100
- CHOL Post-Bleed ([3]; 25 mg/kg single i.p.): 72
- Glucose Post-Bleed ([3]; 25 mg/kg single i.p.): 186
- TRIG Post-Bleed ([3]; 25 mg/kg single i.p.): 187
- CHOL Pre-Bleed ([3]; 50 mg/kg group): 79
- Glucose Pre-Bleed ([3]; 50 mg/kg group): 239
- TRIG Pre-Bleed ([3]; 50 mg/kg group): 87
- CHOL Post-Bleed ([3]; 50 mg/kg single i.p.): 57
- Glucose Post-Bleed ([3]; 50 mg/kg single i.p.): 179
- TRIG Post-Bleed ([3]; 50 mg/kg single i.p.): 163
- Full-length antisense compound concentration, Kidney [4]: 355 µg/g
- Full-length antisense compound concentration, Liver [4]: 125 µg/g
- Total antisense compound concentration, Kidney [4]: 757 µg/g
- Total antisense compound concentration, Liver [4]: 274 µg/g
